Test results reported in patent US7799781B2, “5,6,7,8-tetrahydropteridine derivatives as HSP90 inhibitors” (AstraZeneca AB, priority 2007, dated 2010).

The compounds below were run against T1, HSP90α (Homo sapiens, UniProt P07900) (assay: Test (a) In Vitro Binding Assay (fluorescence polarisation, binding to the ATP pocket of HSP90α)). Conditions: FP probe displacement, geometric mean where tested more than once.
T1 construct: 6H is tagged HSP90α protein (amino acids 2-732) expressed in E. coli; 6His; made in house; host or cells: E. coli
Experimental: Test (a) In Vitro Binding Assay
Test (a) measures the ability of a compound to bind to the ATP pocket of HSP90α. 6H is tagged HSP90α protein (amino acids 2-732) expressed in E. coli was purified and stored at −80° C. in aliquots. Assay measurements were performed in assay buffer comprising 20 mM HEPES pH 7.4, 50 mM KCl, 20 mM NaHMoO4, 0.01% Nonidet P40, 2 mM DTT and 0.1 mg/ml BSA. Following resuspension in DMSO, the FP probe 3-[[5-(5-ethyl-2,4-dihydroxy-phenyl)-4-(4-methoxyphenyl)2H-pyrazole-3-carbonyl]amino]propyl-Cy3B-amide; 14-(2-{[3-({[3-(5-ethyl-2,4-dihydroxyphenyl)-4-(4-methoxyphenyl)-1H-pyrazol-5-yl]carbonyl}amino)propyl]amino}-2-oxoethyl)-16,16,18,18-tetramethyl-2-sulfo-6,7,7a,8a,9,10,16,18-octahydrobenzo[2″,3″]indolizino [8″,7″:5′,6′]pyrano[3′,2′:3,4]pyrido[1,2-a]indol-5-ium) was diluted to a final concentration of 5 nM in assay buffer. Test compounds were prepared by dilution in 100% DMSO to give the appropriate dose range and dispensed into a 384 well assay plate as a 6X concentrate. Upon addition of recombinant HSP90α to a final assay concentration of 1 μg/ml, FP probe was added and plates incubated at room temperature for 1 to 4 hours. Final DMSO concentration was 1% in a total assay volume of 18 μl. Fluorescence Polarisation measurements were made using a Tecan Ultra plate reader using an excitation wavelength of 530 nm and an emission wavelength of 590 nm. Millipolarisation (mP) values were estimated using Xfluor software.
The data in the above table was generated in an assay substantially as described above in relation to in-vitro Binding Assay (a). Some of the compounds shown in the table were tested more than once in the assay. For those compounds the IC50 value shown is the geometric mean of the measured IC50 values. Therefore, as will be understood, the IC50 values quoted above are not absolute and further measurements of the IC50 values may result in a different mean IC50 value.

Compound | IC50 [nM]
COc1c(C)cnc(CN2c3nc(N)ncc3N(CC(C)(C)N(C)C)C(=O)[C@H]2C)c1C [Example 11.12, (7R)-2-amino-5-[2-(dimethylamino)-2-methylpropyl]-8-[(4-methoxy-3,5-dimethylpyridin-2-yl)methyl]-7-methyl-7,8-dihydropteridin-6(5H)-one] | 16000
COc1c(C)cnc(CN2c3nc(N)ncc3N(CCCN(C)C)C(=O)[C@H]2C)c1C [Example 11.13, (7R)-2-amino-5-[3-(dimethylamino)propyl]-8-[(4-methoxy-3,5-dimethylpyridin-2-yl)methyl]-7-methyl-7,8-dihydropteridin-6(5H)-one] | 4850
COc1c(C)cnc(CN2c3nc(N)ncc3N(CCN3CCOCC3)C(=O)[C@H]2C)c1C [Example 11.14, (7R)-2-amino-8-[(4-methoxy-3,5-dimethylpyridin-2-yl)methyl]-7-methyl-5-(2-morpholin-4-ylethyl)-7,8-dihydropteridin-6(5H)-one] | 2400
COc1c(C)cnc(CN2c3nc(N)ncc3N(CCc3ccncc3)C(=O)[C@H]2C)c1C [Example 11.15, (7R)-2-amino-8-[(4-methoxy-3,5-dimethylpyridin-2-yl)methyl]-7-methyl-5-(2-pyridin-4-ylethyl)-7,8-dihydropteridin-6(5H)-one] | 563
COc1c(C)cnc(CN2c3nc(N)ncc3N(CCc3cccnc3)C(=O)[C@H]2C)c1C [Example 11.16, (7R)-2-amino-8-[(4-methoxy-3,5-dimethylpyridin-2-yl)methyl]-7-methyl-5-(2-pyridin-3-ylethyl)-7,8-dihydropteridin-6(5H)-one] | 542
COc1c(C)cnc(CN2c3nc(N)ncc3N(CCCc3cccnc3)C(=O)[C@H]2C)c1C [Example 11.17, (7R)-2-amino-8-[(4-methoxy-3,5-dimethylpyridin-2-yl)methyl]-7-methyl-5-(3-pyridin-3-ylpropyl)-7,8-dihydropteridin-6(5H)-one] | 1480
COc1c(C)cnc(CN2CC(=O)N(CCc3cccnc3)c3c(Cl)nc(N)nc32)c1C [Example 11.18, 2-amino-4-chloro-8-[(4-methoxy-3,5-dimethylpyridin-2-yl)methyl]-5-(2-pyridin-3-ylethyl)-7,8-dihydropteridin-6(5H)-one] | 166
CCCN1C(=O)CN(Cc2ncc(C)c(OC)c2C)c2nc(N)ncc21 [Example 11.19, 2-amino-8-[(4-methoxy-3,5-dimethylpyridin-2-yl)methyl]-5-propyl-7,8-dihydropteridin-6(5H)-one] | 619
COc1c(C)cnc(CN2c3nc(N)ncc3N(CCN3CCNC3=O)C(=O)[C@H]2C)c1C [Example 11.20, (7R)-2-amino-8-[(4-methoxy-3,5-dimethylpyridin-2-yl)methyl]-7-methyl-5-[2-(2-oxoimidazolidin-1-yl)ethyl]-7,8-dihydropteridin-6(5H)-one] | 2680
COc1c(C)cnc(CN2c3nc(N)ncc3N(CCN3CCCC3=O)C(=O)[C@H]2C)c1C [Example 11.21, (7R)-2-amino-8-[(4-methoxy-3,5-dimethylpyridin-2-yl)methyl]-7-methyl-5-[2-(2-oxopyrrolidin-1-yl)ethyl]-7,8-dihydropteridin-6(5H)-one] | 4610
COc1c(C)cnc(CN2CC(=O)N(Cc3ccccc3)c3c(Cl)nc(N)nc32)c1C [Example 11.22, 2-amino-5-benzyl-4-chloro-8-[(4-methoxy-3,5-dimethylpyridin-2-yl)methyl]-7,8-dihydropteridin-6(5H)-one] | 288
CCCN1C(=O)CN(Cc2ncc(C)c(OC)c2C)c2nc(N)nc(Cl)c21 [Example 11.23, 2-amino-4-chloro-8-[(4-methoxy-3,5-dimethylpyridin-2-yl)methyl]-5-propyl-7,8-dihydropteridin-6(5H)-one] | 49.6
COc1c(C)cnc(CN2CC(=O)N(CCc3ccccc3)c3c(Cl)nc(N)nc32)c1C [Example 11.24, 2-amino-4-chloro-8-[(4-methoxy-3,5-dimethylpyridin-2-yl)methyl]-5-(2-phenylethyl)-7,8-dihydropteridin-6(5H)-one] | 81.8
COc1c(C)cnc(CN2c3nc(N)ncc3NC(=O)[C@H]2CC(=O)O)c1C [Example 12, {(7R)-2-amino-8-[(4-methoxy-3,5-dimethylpyridin-2-yl)methyl]-6-oxo-5,6,7,8-tetrahydropteridin-7-yl}acetic acid] | 7340
COc1c(C)cnc(CN2c3nc(N)ncc3NC(=O)[C@H]2CC(N)=O)c1C [Example 13, 2-{(7R)-2-amino-8-[(4-methoxy-3,5-dimethylpyridin-2-yl)methyl]-6-oxo-5,6,7,8-tetrahydropteridin-7-yl}acetamide] | 1750
COc1c(C)cnc(CN2c3nc(N)ncc3NC(=O)[C@H]2CC(=O)NCCCN(C)C)c1C [Example 14.1, 2-{(7R)-2-amino-8-[(4-methoxy-3,5-dimethylpyridin-2-yl)methyl]-6-oxo-5,6,7,8-tetrahydropteridin-7-yl}-N-[3-(dimethylamino)propyl]acetamide] | 1630
COc1c(C)cnc(CN2c3nc(N)ncc3NC(=O)[C@H]2CC(=O)NCCN(C)C)c1C [Example 14.2, 2-{(7R)-2-amino-8-[(4-methoxy-3,5-dimethylpyridin-2-yl)methyl]-6-oxo-5,6,7,8-tetrahydropteridin-7-yl}-N-[2-(dimethylamino)ethyl]acetamide] | 1620
COc1c(C)cnc(CN2CC(=O)Nc3c(C)nc(N)nc32)c1C [Example 15, 2-amino-8-[(4-methoxy-3,5-dimethyl-pyridin-2-yl)methyl]-4-methyl-5,7-dihydropteridin-6-one] | 808
